# Source: the NIST ThermoML archive (doi:10.1016/j.fluid.2006.07.015)
# ± gives the expanded uncertainty stated by the source.
# Key:
# [1] = Crystal; visual observation
# [2] = activity coefficient (dimensionless); of the first substance listed, at infinite dilution; xn = mol fraction of the nth substance listed; details: 101 kPa, Liquid, Chromatography, x1 = 0
SMILES,Normal melting temperature [1],activity coefficient ([2]; 373.15 K),activity coefficient ([2]; 388.15 K),activity coefficient ([2]; 403.15 K),activity coefficient ([2]; 418.15 K),activity coefficient ([2]; 433.15 K)
"CCCCCCCCCCCCCCCCCCC(CCCCCCCCCCCCCCCCCC)CCCCC(CCCCCCCCCCCCCCCCCC)CCCCCCCCCCCCCCCCCC [19,24-dioctadecyldotetracontane]",72 ± 6 °C,,,,,
C1=CCCCC1 [cyclohexene] + CCCCCCCCCCCCCCCCCCC(CCCCCCCCCCCCCCCCCC)CCCCC(CCCCCCCCCCCCCCCCCC)CCCCCCCCCCCCCCCCCC,,0.239 ± 0.036,0.244 ± 0.036,0.243 ± 0.036,0.241 ± 0.036,0.243 ± 0.036
CC#CCCC [2-hexyne] + CCCCCCCCCCCCCCCCCCC(CCCCCCCCCCCCCCCCCC)CCCCC(CCCCCCCCCCCCCCCCCC)CCCCCCCCCCCCCCCCCC,,0.378 ± 0.034,0.377 ± 0.034,0.377 ± 0.034,0.378 ± 0.034,0.38 ± 0.034
CCCCCCCC [octane] + CCCCCCCCCCCCCCCCCCC(CCCCCCCCCCCCCCCCCC)CCCCC(CCCCCCCCCCCCCCCCCC)CCCCCCCCCCCCCCCCCC,,0.38 ± 0.034,0.381 ± 0.034,0.382 ± 0.034,0.384 ± 0.034,0.386 ± 0.034
"C[C@@H]1CCCC[C@@H]1C [cis-1,2-dimethylcyclohexane] + CCCCCCCCCCCCCCCCCCC(CCCCCCCCCCCCCCCCCC)CCCCC(CCCCCCCCCCCCCCCCCC)CCCCCCCCCCCCCCCCCC",,0.271 ± 0.036,0.277 ± 0.036,0.279 ± 0.036,0.28 ± 0.036,0.285 ± 0.036
C=CCCCCC [1-heptene] + CCCCCCCCCCCCCCCCCCC(CCCCCCCCCCCCCCCCCC)CCCCC(CCCCCCCCCCCCCCCCCC)CCCCCCCCCCCCCCCCCC,,0.354 ± 0.035,0.355 ± 0.035,0.356 ± 0.035,0.357 ± 0.035,0.359 ± 0.035
C=CCCCCCCCC [1-decene] + CCCCCCCCCCCCCCCCCCC(CCCCCCCCCCCCCCCCCC)CCCCC(CCCCCCCCCCCCCCCCCC)CCCCCCCCCCCCCCCCCC,,0.411 ± 0.034,0.413 ± 0.034,0.413 ± 0.034,0.416 ± 0.034,0.418 ± 0.034
C1CCCCCCCCC1 [cyclodecane] + CCCCCCCCCCCCCCCCCCC(CCCCCCCCCCCCCCCCCC)CCCCC(CCCCCCCCCCCCCCCCCC)CCCCCCCCCCCCCCCCCC,,0.269 ± 0.036,0.281 ± 0.036,0.283 ± 0.036,0.287 ± 0.036,0.288 ± 0.036
c1ccccc1 [benzene] + CCCCCCCCCCCCCCCCCCC(CCCCCCCCCCCCCCCCCC)CCCCC(CCCCCCCCCCCCCCCCCC)CCCCCCCCCCCCCCCCCC,,0.269 ± 0.036,0.266 ± 0.036,0.263 ± 0.036,0.26 ± 0.036,0.258 ± 0.036
Cc1ccccc1 [toluene] + CCCCCCCCCCCCCCCCCCC(CCCCCCCCCCCCCCCCCC)CCCCC(CCCCCCCCCCCCCCCCCC)CCCCCCCCCCCCCCCCCC,,0.284 ± 0.036,0.284 ± 0.036,0.282 ± 0.036,0.278 ± 0.036,0.275 ± 0.036
CCCCCCC [heptane] + CCCCCCCCCCCCCCCCCCC(CCCCCCCCCCCCCCCCCC)CCCCC(CCCCCCCCCCCCCCCCCC)CCCCCCCCCCCCCCCCCC,,0.361 ± 0.035,0.363 ± 0.035,0.365 ± 0.035,0.367 ± 0.034,0.37 ± 0.03
"CC(C)C(C)(C)C [2,2,3-trimethylbutane] + CCCCCCCCCCCCCCCCCCC(CCCCCCCCCCCCCCCCCC)CCCCC(CCCCCCCCCCCCCCCCCC)CCCCCCCCCCCCCCCCCC",,0.34 ± 0.035,0.345 ± 0.035,0.348 ± 0.035,0.349 ± 0.035,0.355 ± 0.035
C1C2CC3CC1CC(C2)C3 [adamantane] + CCCCCCCCCCCCCCCCCCC(CCCCCCCCCCCCCCCCCC)CCCCC(CCCCCCCCCCCCCCCCCC)CCCCCCCCCCCCCCCCCC,,0.337 ± 0.035,0.339 ± 0.035,0.337 ± 0.035,0.342 ± 0.035,0.343 ± 0.035
CCc1ccccc1 [ethylbenzene] + CCCCCCCCCCCCCCCCCCC(CCCCCCCCCCCCCCCCCC)CCCCC(CCCCCCCCCCCCCCCCCC)CCCCCCCCCCCCCCCCCC,,0.314 ± 0.035,0.315 ± 0.035,0.313 ± 0.035,0.304 ± 0.035,0.304 ± 0.035
C#CCCCCC [1-heptyne] + CCCCCCCCCCCCCCCCCCC(CCCCCCCCCCCCCCCCCC)CCCCC(CCCCCCCCCCCCCCCCCC)CCCCCCCCCCCCCCCCCC,,0.411 ± 0.034,0.407 ± 0.034,0.401 ± 0.034,0.399 ± 0.034,0.398 ± 0.034
"C1=CCCC=C1 [1,3-cyclohexadiene] + CCCCCCCCCCCCCCCCCCC(CCCCCCCCCCCCCCCCCC)CCCCC(CCCCCCCCCCCCCCCCCC)CCCCCCCCCCCCCCCCCC",,0.251 ± 0.036,0.253 ± 0.036,0.255 ± 0.036,0.252 ± 0.036,0.252 ± 0.036
C#CCCCCCCC [1-nonyne] + CCCCCCCCCCCCCCCCCCC(CCCCCCCCCCCCCCCCCC)CCCCC(CCCCCCCCCCCCCCCCCC)CCCCCCCCCCCCCCCCCC,,0.445 ± 0.033,0.443 ± 0.033,0.438 ± 0.033,0.431 ± 0.034,0.425 ± 0.034
CCCCCCCCC [nonane] + CCCCCCCCCCCCCCCCCCC(CCCCCCCCCCCCCCCCCC)CCCCC(CCCCCCCCCCCCCCCCCC)CCCCCCCCCCCCCCCCCC,,0.399 ± 0.034,0.401 ± 0.034,0.403 ± 0.034,0.404 ± 0.034,0.406 ± 0.034
CCCCCCCCCCCCC [tridecane] + CCCCCCCCCCCCCCCCCCC(CCCCCCCCCCCCCCCCCC)CCCCC(CCCCCCCCCCCCCCCCCC)CCCCCCCCCCCCCCCCCC,,0.479 ± 0.033,0.479 ± 0.033,0.479 ± 0.033,0.48 ± 0.033,0.481 ± 0.033
C1CC[C@@H]2CCC[C@H]2C1 [trans-bicyclo[4.3.0]nonane] + CCCCCCCCCCCCCCCCCCC(CCCCCCCCCCCCCCCCCC)CCCCC(CCCCCCCCCCCCCCCCCC)CCCCCCCCCCCCCCCCCC,,0.267 ± 0.036,0.278 ± 0.036,0.276 ± 0.036,0.273 ± 0.036,0.277 ± 0.036
CCCCC [pentane] + CCCCCCCCCCCCCCCCCCC(CCCCCCCCCCCCCCCCCC)CCCCC(CCCCCCCCCCCCCCCCCC)CCCCCCCCCCCCCCCCCC,,0.336 ± 0.035,0.338 ± 0.035,0.341 ± 0.035,0.345 ± 0.035,0.349 ± 0.035
"CCC(C)C(C)CC (stereo unspecified) [3,4-dimethylhexane] + CCCCCCCCCCCCCCCCCCC(CCCCCCCCCCCCCCCCCC)CCCCC(CCCCCCCCCCCCCCCCCC)CCCCCCCCCCCCCCCCCC",,0.353 ± 0.035,0.357 ± 0.035,0.36 ± 0.035,0.362 ± 0.035,0.366 ± 0.035
CCCC#CCCC [4-octyne] + CCCCCCCCCCCCCCCCCCC(CCCCCCCCCCCCCCCCCC)CCCCC(CCCCCCCCCCCCCCCCCC)CCCCCCCCCCCCCCCCCC,,0.436 ± 0.033,0.429 ± 0.034,0.424 ± 0.034,0.421 ± 0.034,0.416 ± 0.034
"C1CCC2CCCC2C1 (stereo unspecified) [1H-indene, octahydro-] + CCCCCCCCCCCCCCCCCCC(CCCCCCCCCCCCCCCCCC)CCCCC(CCCCCCCCCCCCCCCCCC)CCCCCCCCCCCCCCCCCC",,0.26 ± 0.036,0.268 ± 0.036,0.269 ± 0.036,0.266 ± 0.036,0.27 ± 0.036
C1CCCCC1 [cyclohexane] + CCCCCCCCCCCCCCCCCCC(CCCCCCCCCCCCCCCCCC)CCCCC(CCCCCCCCCCCCCCCCCC)CCCCCCCCCCCCCCCCCC,,0.25 ± 0.036,0.251 ± 0.036,0.246 ± 0.036,0.245 ± 0.036,0.247 ± 0.036
C=CCCCCCCCCC [1-undecene] + CCCCCCCCCCCCCCCCCCC(CCCCCCCCCCCCCCCCCC)CCCCC(CCCCCCCCCCCCCCCCCC)CCCCCCCCCCCCCCCCCC,,0.435 ± 0.033,0.436 ± 0.033,0.435 ± 0.033,0.436 ± 0.033,0.436 ± 0.033
c1ccc2ccccc2c1 [naphthalene] + CCCCCCCCCCCCCCCCCCC(CCCCCCCCCCCCCCCCCC)CCCCC(CCCCCCCCCCCCCCCCCC)CCCCCCCCCCCCCCCCCC,,0.384 ± 0.034,0.397 ± 0.034,0.4 ± 0.034,0.392 ± 0.034,0.386 ± 0.034
"C1=CCC=CC1 [1,4-cyclohexadiene] + CCCCCCCCCCCCCCCCCCC(CCCCCCCCCCCCCCCCCC)CCCCC(CCCCCCCCCCCCCCCCCC)CCCCCCCCCCCCCCCCCC",,0.242 ± 0.036,0.244 ± 0.036,0.242 ± 0.036,0.238 ± 0.036,0.238 ± 0.036
CCCCc1ccccc1 [butylbenzene] + CCCCCCCCCCCCCCCCCCC(CCCCCCCCCCCCCCCCCC)CCCCC(CCCCCCCCCCCCCCCCCC)CCCCCCCCCCCCCCCCCC,,0.357 ± 0.035,0.362 ± 0.035,0.359 ± 0.035,0.358 ± 0.035,0.354 ± 0.035
